ChEMBL document CHEMBL1201862, “PubChem BioAssay data set” (2004)
The source made the active and inactive calls.

Assays:
[1] = molecular target: T1, Short transient receptor potential channel 4 (Mus musculus, UniProt Q9QUQ5); test: mouse TRPC4 channel activators, dose response, cell-based, HEK293 TRPC4/mu-opioid, Fluo-4 calcium (AID 434937); format: functional
T1 sequence (Q9QUQ5 whole entry): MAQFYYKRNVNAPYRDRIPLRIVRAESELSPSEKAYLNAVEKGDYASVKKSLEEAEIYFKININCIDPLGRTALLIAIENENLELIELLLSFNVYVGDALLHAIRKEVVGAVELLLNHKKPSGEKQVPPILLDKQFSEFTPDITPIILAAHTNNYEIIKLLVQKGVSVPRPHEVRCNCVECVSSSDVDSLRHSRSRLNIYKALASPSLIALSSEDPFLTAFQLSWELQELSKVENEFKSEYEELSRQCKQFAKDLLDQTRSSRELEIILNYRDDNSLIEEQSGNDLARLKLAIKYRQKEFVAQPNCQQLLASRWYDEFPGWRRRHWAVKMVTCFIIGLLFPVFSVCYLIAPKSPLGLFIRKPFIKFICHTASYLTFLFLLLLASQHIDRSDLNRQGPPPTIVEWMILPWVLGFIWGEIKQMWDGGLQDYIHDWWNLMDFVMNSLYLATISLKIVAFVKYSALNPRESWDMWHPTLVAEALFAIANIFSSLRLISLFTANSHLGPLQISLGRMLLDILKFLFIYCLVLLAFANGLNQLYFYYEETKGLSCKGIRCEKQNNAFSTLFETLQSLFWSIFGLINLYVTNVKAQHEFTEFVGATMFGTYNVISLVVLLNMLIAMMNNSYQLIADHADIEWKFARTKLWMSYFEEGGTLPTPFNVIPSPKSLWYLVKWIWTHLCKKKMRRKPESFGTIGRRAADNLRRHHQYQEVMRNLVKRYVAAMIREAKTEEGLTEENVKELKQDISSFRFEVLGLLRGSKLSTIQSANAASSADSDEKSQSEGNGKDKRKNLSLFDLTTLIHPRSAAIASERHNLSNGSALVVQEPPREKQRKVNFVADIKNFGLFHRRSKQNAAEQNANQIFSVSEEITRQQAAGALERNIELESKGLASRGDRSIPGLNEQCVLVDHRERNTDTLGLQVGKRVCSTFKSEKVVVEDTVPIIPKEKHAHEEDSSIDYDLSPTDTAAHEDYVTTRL

[2] = molecular target: T2, High affinity choline transporter 1 (Homo sapiens, UniProt Q9GZV3); test: CHT inhibitors, dose response, cell-based, 5-point CRC, membrane potential dye (AID 504840); format: functional
T2 sequence (Q9GZV3 whole entry): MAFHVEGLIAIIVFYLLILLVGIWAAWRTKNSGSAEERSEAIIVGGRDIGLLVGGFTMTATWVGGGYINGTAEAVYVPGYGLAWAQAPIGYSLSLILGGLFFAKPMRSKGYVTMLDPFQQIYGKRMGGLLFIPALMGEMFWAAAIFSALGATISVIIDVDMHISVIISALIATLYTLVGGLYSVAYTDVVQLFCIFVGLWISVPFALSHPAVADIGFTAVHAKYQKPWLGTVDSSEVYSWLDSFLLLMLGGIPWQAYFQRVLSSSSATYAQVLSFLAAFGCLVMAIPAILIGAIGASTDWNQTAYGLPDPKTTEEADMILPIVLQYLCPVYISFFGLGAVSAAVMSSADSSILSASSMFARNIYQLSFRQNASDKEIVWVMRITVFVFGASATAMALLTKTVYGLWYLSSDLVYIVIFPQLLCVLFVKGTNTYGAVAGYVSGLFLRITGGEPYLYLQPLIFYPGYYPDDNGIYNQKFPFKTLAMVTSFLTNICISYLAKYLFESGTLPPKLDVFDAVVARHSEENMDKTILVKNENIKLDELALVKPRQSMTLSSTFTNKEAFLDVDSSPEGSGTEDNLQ

[3] = molecular target: T3, Leucine aminopeptidase (Plasmodium falciparum 3D7, UniProt Q8IL11); test: P. falciparum M17LAP inhibitors, primary screen, biochemical, fluorogenic H-Leu-NHMec substrate, 1536-well (AID 1619); format: functional
T3 sequence (Q8IL11 whole entry): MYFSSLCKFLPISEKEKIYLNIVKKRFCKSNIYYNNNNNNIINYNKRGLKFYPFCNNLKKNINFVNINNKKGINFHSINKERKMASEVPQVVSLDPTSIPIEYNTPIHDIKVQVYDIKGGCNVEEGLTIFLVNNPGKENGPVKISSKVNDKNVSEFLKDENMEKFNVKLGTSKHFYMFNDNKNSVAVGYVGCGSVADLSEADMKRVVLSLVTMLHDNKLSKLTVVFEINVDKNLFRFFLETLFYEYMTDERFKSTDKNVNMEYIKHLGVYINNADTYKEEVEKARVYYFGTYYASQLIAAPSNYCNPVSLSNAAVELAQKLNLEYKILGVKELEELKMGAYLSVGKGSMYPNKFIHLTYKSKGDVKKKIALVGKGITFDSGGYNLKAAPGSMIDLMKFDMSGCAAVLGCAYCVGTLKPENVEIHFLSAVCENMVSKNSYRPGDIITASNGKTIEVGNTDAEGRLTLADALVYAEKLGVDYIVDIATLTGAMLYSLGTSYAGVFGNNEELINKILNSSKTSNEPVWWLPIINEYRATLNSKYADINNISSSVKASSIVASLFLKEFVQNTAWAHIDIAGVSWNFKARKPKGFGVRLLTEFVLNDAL

[4] = cytotoxicity in MIN6 insulinoma cells, dose response, cytotoxicity control, cell-based, mouse insulinoma (AID 2122); format: functional;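 note: confirmatory high-throughput counterscreen run to flag cytotoxic compounds; mouse MIN-6 beta cells carrying an insulin promoter eGFP reporter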
[5] = microbe, parasite or virus in culture; format: functional; conditions: Mycobacterium tuberculosis
[6] = insulin promoter down-regulators in MIN6 cells, imaging, high-content screening, mouse beta cells (AID 1628); format: functional
[7] = test system: HEK293; test: inhibitors of LMP1-driven NF-kB reporter, dose response, cell-based, HEK293, luciferase, cherry-pick (AID 588343); format: functional; conditions: Homo sapiens
[8] = Luminescence Cell-Based Dose Confirmation HTS to Identify Inhibitors of Platelet Dense Granule Release. [Related pubchem assays: 1663 (Primary HTS), 1678 (Summary of Project)]; format: functional
[9] = control 3'UTR Renilla luciferase suppression, dose response, counter-screen for Shn3 inhibitor project, cell-based, Clone20-Shn3RL, cherry-picked (AID 624133); format: functional
[10] = HepG2 cell cytotoxicity, dose response, cytotoxicity control for Shn3 inhibitor project, CellTiter-Glo, cherry-picked (AID 624134); format: functional, cell-based
[11] = molecular target: Luciferin 4-monooxygenase (Photinus pyralis, UniProt P08659); test: firefly luciferase enzyme inhibitors, dose response, biochemical, luminescence (AID 1891)
Sequence of Luciferin 4-monooxygenase (P08659 whole entry): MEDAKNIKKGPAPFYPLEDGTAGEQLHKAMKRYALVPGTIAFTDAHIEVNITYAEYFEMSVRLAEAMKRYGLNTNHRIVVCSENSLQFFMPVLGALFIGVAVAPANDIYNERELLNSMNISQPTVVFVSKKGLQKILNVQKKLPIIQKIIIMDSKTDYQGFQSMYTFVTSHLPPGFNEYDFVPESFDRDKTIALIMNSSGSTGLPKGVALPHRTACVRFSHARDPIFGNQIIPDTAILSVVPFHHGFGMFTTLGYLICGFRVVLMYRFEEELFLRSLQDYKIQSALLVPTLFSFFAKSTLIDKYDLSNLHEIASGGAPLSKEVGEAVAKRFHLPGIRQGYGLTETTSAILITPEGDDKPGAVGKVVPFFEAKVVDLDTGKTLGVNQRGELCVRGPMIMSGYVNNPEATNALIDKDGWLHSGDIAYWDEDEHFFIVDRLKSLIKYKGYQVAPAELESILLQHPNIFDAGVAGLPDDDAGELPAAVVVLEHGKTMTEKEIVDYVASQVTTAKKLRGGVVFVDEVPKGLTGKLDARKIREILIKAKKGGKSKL

[12] = Shn3 3'UTR reporter inhibitors, dose response, cell-based, Clone20 osteoblasts, firefly luciferase, cherry-picked (AID 624132); format: functional;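 note: firefly luciferase luminescence from reporter carrying the Shn3 3'UTR in osteoblasts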
[13] = molecular target: T4, Caspase-3 (Homo sapiens, UniProt P42574); format: functional;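 note: Dose-response selectivity test against caspase-3 for candidate inhibitors of sentrin-specific proteases (SENPs)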
T4 sequence (P42574 whole entry): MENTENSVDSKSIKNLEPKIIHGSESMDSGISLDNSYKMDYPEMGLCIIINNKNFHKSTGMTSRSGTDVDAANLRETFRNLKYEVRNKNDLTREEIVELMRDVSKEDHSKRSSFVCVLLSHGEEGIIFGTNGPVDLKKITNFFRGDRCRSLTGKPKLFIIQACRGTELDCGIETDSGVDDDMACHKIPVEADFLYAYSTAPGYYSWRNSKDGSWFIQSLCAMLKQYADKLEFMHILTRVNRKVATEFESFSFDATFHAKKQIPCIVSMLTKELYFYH

[14] = molecular target: T5, Sentrin-specific protease 7 (Homo sapiens, UniProt Q9BQF6); format: functional;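 note: Luminescence-based dose-response confirmation of ultra-high-throughput screening hits, measuring inhibition of SENP7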
T5 sequence (Q9BQF6 whole entry): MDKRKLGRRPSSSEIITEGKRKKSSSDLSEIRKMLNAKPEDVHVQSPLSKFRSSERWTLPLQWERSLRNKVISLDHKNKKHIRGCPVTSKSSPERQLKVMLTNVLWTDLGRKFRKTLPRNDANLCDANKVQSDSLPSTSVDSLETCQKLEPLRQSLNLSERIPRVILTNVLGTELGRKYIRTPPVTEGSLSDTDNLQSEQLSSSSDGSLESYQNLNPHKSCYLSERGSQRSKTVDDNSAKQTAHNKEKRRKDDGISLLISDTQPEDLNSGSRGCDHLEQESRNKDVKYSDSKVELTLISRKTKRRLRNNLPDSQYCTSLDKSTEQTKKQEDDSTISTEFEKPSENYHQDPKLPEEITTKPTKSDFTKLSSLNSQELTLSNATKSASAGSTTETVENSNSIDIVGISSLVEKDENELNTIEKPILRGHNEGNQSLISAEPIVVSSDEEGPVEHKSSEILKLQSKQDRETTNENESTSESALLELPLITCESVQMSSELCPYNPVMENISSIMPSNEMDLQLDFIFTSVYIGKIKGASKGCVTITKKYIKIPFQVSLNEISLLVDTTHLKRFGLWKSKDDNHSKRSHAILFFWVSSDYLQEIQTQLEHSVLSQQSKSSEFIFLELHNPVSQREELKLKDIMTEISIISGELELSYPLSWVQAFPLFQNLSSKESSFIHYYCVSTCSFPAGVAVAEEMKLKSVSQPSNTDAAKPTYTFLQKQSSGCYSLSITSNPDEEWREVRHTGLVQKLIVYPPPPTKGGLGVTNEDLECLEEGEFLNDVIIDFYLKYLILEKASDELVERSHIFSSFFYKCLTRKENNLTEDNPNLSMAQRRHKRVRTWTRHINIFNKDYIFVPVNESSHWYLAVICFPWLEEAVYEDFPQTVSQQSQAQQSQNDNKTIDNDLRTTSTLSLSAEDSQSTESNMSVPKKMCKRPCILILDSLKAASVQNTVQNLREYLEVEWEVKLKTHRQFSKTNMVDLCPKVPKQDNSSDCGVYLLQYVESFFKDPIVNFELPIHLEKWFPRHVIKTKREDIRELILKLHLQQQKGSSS

[15] = molecular target: T6, Sentrin-specific protease 6 (Homo sapiens, UniProt Q9GZR1); format: functional;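 note: Luminescence-based dose-response confirmatory assay of SENP6 inhibition, following up an ultra-high-throughput screen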
T6 sequence (Q9GZR1 whole entry): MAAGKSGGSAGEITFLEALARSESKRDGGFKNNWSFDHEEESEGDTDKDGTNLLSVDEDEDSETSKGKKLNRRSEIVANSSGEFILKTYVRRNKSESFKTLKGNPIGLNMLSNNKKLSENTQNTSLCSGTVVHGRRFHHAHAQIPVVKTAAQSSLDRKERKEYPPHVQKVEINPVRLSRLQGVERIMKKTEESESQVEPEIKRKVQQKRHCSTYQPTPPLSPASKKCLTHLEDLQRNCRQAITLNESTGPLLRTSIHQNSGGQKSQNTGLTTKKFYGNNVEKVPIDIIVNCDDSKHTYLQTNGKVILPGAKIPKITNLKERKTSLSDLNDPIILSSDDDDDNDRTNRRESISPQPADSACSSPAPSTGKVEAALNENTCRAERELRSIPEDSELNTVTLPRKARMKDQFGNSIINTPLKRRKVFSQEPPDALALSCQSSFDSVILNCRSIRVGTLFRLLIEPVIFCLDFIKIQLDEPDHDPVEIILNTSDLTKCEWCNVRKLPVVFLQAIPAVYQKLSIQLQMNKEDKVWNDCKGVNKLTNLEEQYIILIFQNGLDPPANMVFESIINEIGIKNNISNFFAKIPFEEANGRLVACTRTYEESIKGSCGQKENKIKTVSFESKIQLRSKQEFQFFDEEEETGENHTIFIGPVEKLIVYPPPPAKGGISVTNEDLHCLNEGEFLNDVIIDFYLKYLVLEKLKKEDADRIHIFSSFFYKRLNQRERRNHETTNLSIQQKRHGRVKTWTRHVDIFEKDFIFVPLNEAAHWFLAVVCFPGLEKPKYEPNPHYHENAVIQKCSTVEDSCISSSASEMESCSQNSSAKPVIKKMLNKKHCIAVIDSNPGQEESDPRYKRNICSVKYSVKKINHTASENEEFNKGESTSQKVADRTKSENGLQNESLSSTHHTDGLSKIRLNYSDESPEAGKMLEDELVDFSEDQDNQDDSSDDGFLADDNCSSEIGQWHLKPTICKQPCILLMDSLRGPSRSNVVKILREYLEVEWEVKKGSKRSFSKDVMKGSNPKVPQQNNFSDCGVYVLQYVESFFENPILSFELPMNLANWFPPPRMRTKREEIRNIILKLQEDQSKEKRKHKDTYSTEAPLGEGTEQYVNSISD

[16] = molecular target: T7, Sentrin-specific protease 8 (Homo sapiens, UniProt Q96LD8); format: functional;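 note: luminescence read-out of SENP8 inhibition, dose-response confirmation following an ultra-high-throughput screen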
T7 sequence (Q96LD8 whole entry): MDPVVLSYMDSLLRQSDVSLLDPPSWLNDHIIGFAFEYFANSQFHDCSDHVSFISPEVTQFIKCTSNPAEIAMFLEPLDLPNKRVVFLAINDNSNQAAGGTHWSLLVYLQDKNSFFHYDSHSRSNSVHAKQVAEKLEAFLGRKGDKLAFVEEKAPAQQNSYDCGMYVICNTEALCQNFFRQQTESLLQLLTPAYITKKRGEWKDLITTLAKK

Compound: CCN(CC)c1ccc(/C=C/[N+](=O)[O-])cc1
- EC50 [1]: 2.99 µM (active)

Compound: COc1ccc(CC(=O)NCC(c2ccc(OC)cc2)N(C)C)cc1 (centres undefined)
- EC50 [1]: 0.668 µM (active)

Compound: Cc1ccccc1C(=O)NNC(=S)NC(=O)c1ccccc1
- IC50 [2]: 12.6 µM (active)
- EC50 [1]: 2.11 µM (active)
- IC50 [3]: 91.2 µM (active)

Compound: Brc1ccc2c(c1)C(OC1CN3CCC1CC3)c1ccccc1CS2 (centres undefined)
- IC50 [2]: 16 µM (active)
- IC50 [4]: 2.13 µM (active)
- CC50 [5]: 13.1 µM (active)
- IC50 [6]: 2.34 µM (active)

Compound: COC(=O)c1ccc(N2CCN(C)CC2)c(NC(=O)c2ccc(Br)o2)c1
- EC50 [1]: 5.96 µM (active)

Compound: CCc1ccc2c(c1)CCCN2C(=O)c1ccccc1C(=O)O
- IC50 [4]: 0.994 µM (active)
- IC50 [6]: 1.56 µM (active)

Compound: Cn1c(=O)c2c(nc(NCc3ccco3)n2C/C=C/c2ccccc2)n(C)c1=O
- AC50 [7]: 4.38 µM (active)
- IC50 [4]: < 0.25 µM (active)
- EC50 [8]: 30 µM (active)
- AC50 [9]: 1.13 µM (active)
- AC50 [10]: 4.24 µM (active)
- EC50 [11]: > 112 µM (not active)
- IC50 [6]: 0.41 µM (active)
- AC50 [12]: 1.08 µM (active)

Compound: O=c1cc(-c2ccc(O)cc2)oc2ccc(O)cc12
- IC50 [13]: 16.8 µM (active)
- IC50 [14]: 9.8 µM (active)
- IC50 [15]: 87.7 µM (active)
- IC50 [16]: 11.6 µM (active)
